In this experiment the target is T1, human TLR7 (Homo sapiens, UniProt Q9NYK1).
T1 construct: host or cells: HEK293 (HEK-Blue hTLR7)
T1 sequence (Q9NYK1 27-1049): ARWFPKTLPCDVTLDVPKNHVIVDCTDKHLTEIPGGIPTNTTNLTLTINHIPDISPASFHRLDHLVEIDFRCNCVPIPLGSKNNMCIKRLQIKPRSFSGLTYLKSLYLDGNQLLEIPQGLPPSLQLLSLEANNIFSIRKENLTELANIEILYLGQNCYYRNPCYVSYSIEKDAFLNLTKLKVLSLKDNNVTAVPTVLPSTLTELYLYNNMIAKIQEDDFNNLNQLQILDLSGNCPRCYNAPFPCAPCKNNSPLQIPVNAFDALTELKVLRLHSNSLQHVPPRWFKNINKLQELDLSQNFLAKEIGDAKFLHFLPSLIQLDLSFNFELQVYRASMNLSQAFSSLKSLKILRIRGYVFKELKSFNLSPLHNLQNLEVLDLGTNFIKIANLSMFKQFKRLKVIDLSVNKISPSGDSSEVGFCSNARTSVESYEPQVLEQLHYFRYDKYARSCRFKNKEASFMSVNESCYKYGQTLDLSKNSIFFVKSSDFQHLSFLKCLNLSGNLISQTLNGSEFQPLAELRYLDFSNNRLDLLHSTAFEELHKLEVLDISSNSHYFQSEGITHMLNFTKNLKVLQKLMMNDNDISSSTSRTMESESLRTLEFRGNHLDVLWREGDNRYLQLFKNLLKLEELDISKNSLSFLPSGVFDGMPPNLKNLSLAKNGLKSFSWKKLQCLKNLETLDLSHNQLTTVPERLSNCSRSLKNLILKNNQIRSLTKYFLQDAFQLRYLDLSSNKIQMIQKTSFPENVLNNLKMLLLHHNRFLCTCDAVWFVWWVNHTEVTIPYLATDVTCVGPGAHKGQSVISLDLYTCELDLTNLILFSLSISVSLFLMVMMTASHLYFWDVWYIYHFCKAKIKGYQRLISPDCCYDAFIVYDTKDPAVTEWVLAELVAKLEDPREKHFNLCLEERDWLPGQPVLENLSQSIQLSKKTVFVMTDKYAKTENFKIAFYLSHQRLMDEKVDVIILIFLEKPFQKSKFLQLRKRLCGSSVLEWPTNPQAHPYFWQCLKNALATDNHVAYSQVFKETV
Put plainly: HEK293-Blue-hTLR-7 cells assay (SEAP reporter, R848 stimulation). It is filed as cell-based. To be noted: HEK293-Blue-hTLR7 cells, R848, 20 hrs; read-out: HEK/hTLR7 IC50. The protocol:
The following tests were carried out in order to determine the activity of the compounds of formula (I) and (Ia) in HEK293-Blue-hTLR-7/8/9 cells assay.
A stable HEK293-Blue-hTLR-7 cell line was purchased from InvivoGen (Cat. #: hkb-htlr7, San Diego, California, USA). These cells were originally designed for studying the stimulation of human TLR7 by monitoring the activation of NF-κB. A SEAP (secreted embryonic alkaline phosphatase) reporter gene was placed under the control of the IFN-β minimal promoter fused to five NF-κB and AP-1-binding sites. The SEAP was induced by activating NF-κB and AP-1 via stimulating HEK-Blue hTLR7 cells with TLR7 ligands. Therefore the reporter expression w % as declined by TLR7 antagonist under the stimulation of a ligand, such as R848 (Resiquimod), for incubation of 20 hrs. The cell culture supernatant SEAP reporter activity was determined using QUANTI-Blue™ kit (Cat. #: rep-qb1, Invivogen, San Diego, Ca, USA) at a wavelength of 640 nm, a detection medium that turns purple or blue in the presence of alkaline phosphatase.
HEK293-Blue-hTLR7 cells were incubated at a density of 250,000˜450,000 cells/mL in a volume of 170 μL in a 96-well plate in Dulbecco's Modified Eagle's medium (DMEM) containing 4.5 g/L glucose, 50 U/mL penicillin, […], […] Normocin, 2 mM L-glutamine, 10% (v/v) heat-inactivated fetal bovine serum with addition of 20 μL test compound in a serial dilution in the presence of final DMSO at 1% and 10 μL of 20 uM R848 in above DMEM, perform incubation under 37° C. in a C02 incubator for 20 hrs. Then 20 μL of the supernatant from each well was incubated with 180 μL Quanti-blue substrate solution at 37° C. for 2 hrs and the absorbance was read at 620˜655 nm using a spectrophotometer. The signaling pathway that TLR7 activation leads to downstream NF-κB activation has been widely accepted, and therefore similar reporter assay was modified for evaluating TLR7 antagonist.
For the compound `C[C@H]1CN(c2ccnc3c2cnn3C)Cc2ccc(OC[C@H]3CNCCN3C)cc21` [Example 43, (4R)-4-methyl-2-(1-methylpyrazolo[3,4-b]pyridin-4-yl)-6-[[(2R)-1-methylpiperazin-2-yl]methoxy]-3,4-dihydro-1H-isoquinoline], the IC50 was 8 nM.

Turning to `C[C@H]1CN(c2ccnc3c2cnn3C)Cc2ccc(OC[C@@H]3CNCCN3C)cc21` [Example 44, (4R)-4-methyl-2-(1-methylpyrazolo[3,4-b]pyridin-4-yl)-6-[[(2S)-1-methylpiperazin-2-yl]methoxy]-3,4-dihydro-1H-isoquinoline], the IC50 amounted to 15 nM.

`C[C@H]1CN(c2ccnc3c2cnn3C)Cc2ccc(OC[C@@H]3CNCCN3C=O)cc21` [Example 45, (2S)-2-[[(4R)-4-methyl-2-(1-methylpyrazolo[3,4-b]pyridin-4-yl)-3,4-dihydro-1H-isoquinolin-6-yl]oxymethyl]piperazine-1-carbaldehyde]: the IC50 worked out at 12 nM.

As to `C[C@H]1CN(c2ccnc3c2cnn3C)Cc2ccc(N3C[C@@H](N)[C@H](O)C3)cc21` [Example 46, trans-4-amino-1-[(4R)-4-methyl-2-(1-methylpyrazolo[3,4-b]pyridin-4-yl)-3,4-dihydro-1H-isoquinolin-6-yl]pyrrolidin-3-ol], the IC50 is 10 nM.

Regarding `Cc1cc(N2Cc3ccc(N4C[C@@H](N)[C@H](O)C4)cc3[C@@H](C)C2)c2cnn(C)c2n1` [Example 47, trans-4-amino-1-[(4R)-2-(1,6-dimethylpyrazolo[3,4-b]pyridin-4-yl)-4-methyl-3,4-dihydro-1H-isoquinolin-6-yl]pyrrolidin-3-ol], the IC50 was determined as 13 nM.

Turning to `Cc1cc(N2Cc3ccc(N4CC5(CNCCO5)C4)cc3[C@@H](C)C2)c2cnn(C)c2n1` [Example 48, 2-[(4R)-2-(1,6-dimethylpyrazolo[3,4-b]pyridin-4-yl)-4-methyl-3,4-dihydro-1H-isoquinolin-6-yl]-5-oxa-2,8-diazaspiro[3.5]nonane], the IC50 is 13 nM.

`C[C@H]1CN(c2ccnc3c2cnn3C)Cc2ccc(N3CCNC(CO)C3)cc21` (stereo partly drawn) [Example 49, [4-[(4R)-4-methyl-2-(1-methylpyrazolo[3,4-b]pyridin-4-yl)-3,4-dihydro-1H-isoquinolin-6-yl]piperazin-2-yl]methanol]: the IC50 came out at 5 nM.

In the case of `C[C@H]1CN(c2ccnc3c2cnn3C)Cc2ccc(N3CCN[C@@H](CO)C3)cc21` [Example 50, [(2R)-4-[(4R)-4-methyl-2-(1-methylpyrazolo[3,4-b]pyridin-4-yl)-3,4-dihydro-1H-isoquinolin-6-yl]piperazin-2-yl]methanol], the IC50 was 10 nM.

For `C[C@H]1CN(c2ccnc3c2cnn3C)Cc2ccc(N3CCN[C@H](CO)C3)cc21` [Example 51, [(2S)-4-[(4R)-4-methyl-2-(1-methylpyrazolo[3,4-b]pyridin-4-yl)-3,4-dihydro-1H-isoquinolin-6-yl]piperazin-2-yl]methanol], the IC50 is 9 nM.

Regarding `C[C@H]1CN(c2ccnc3c2cnn3C)Cc2ccc(N3CC4(CCNC4)CC3=O)cc21` (stereo partly drawn) [Example 52, 2-[(4R)-4-methyl-2-(1-methylpyrazolo[3,4-b]pyridin-4-yl)-3,4-dihydro-1H-isoquinolin-6-yl]-2,7-diazaspiro[4.4]nonan-3-one], the IC50 came out at 9 nM.

Regarding `Cc1cc(N2Cc3ccc(N4CCC(N)CC4)nc3[C@@H](C)C2)c2cnn(C)c2n1` [Example 58, 1-[(8S)-6-(1,6-dimethylpyrazolo[3,4-b]pyridin-4-yl)-8-methyl-7,8-dihydro-5H-1,6-naphthyridin-2-yl]piperidin-4-amine], the IC50 amounted to 2 nM.

Take `Cc1cc(N2Cc3ccc(N4CCC(C)(N)CC4)nc3[C@@H](C)C2)c2cnn(C)c2n1` [Example 59, 4-methyl-1-[(8S)-6-(1,6-dimethylpyrazolo[3,4-b]pyridin-4-yl)-8-methyl-7,8-dihydro-5H-1,6-naphthyridin-2-yl]piperidin-4-amine]: the IC50 was found to be 2 nM.

On to `Cc1cc(N2Cc3ccc(N4CCC(N(C)C)CC4)nc3[C@@H](C)C2)c2cnn(C)c2n1` [Example 60, N,N-dimethyl-1-[(8S)-6-(1,6-dimethylpyrazolo[3,4-b]pyridin-4-yl)-8-methyl-7,8-dihydro-5H-1,6-naphthyridin-2-yl]piperidin-4-amine], for which the IC50 came to 3 nM.

Turning to `Cc1cc(N2Cc3ccc(N4CCC(O)(CN(C)C)CC4)nc3[C@@H](C)C2)c2cnn(C)c2n1` [Example 61, 4-[(dimethylamino)methyl]-1-[(8S)-6-(1,6-dimethylpyrazolo[3,4-b]pyridin-4-yl)-8-methyl-7,8-dihydro-5H-1,6-naphthyridin-2-yl]piperidin-4-ol], the IC50 is 3 nM.

For the compound `C[C@H]1CN(c2ccnc3c2cnn3C)Cc2ccc(N3CCNCC3)nc21` [Example 62, (8S)-8-methyl-6-(1-methylpyrazolo[3,4-b]pyridin-4-yl)-2-piperazin-1-yl-7,8-dihydro-5H-1,6-naphthyridine], the IC50 came out at 5 nM.

In the case of `CO[C@@H]1CN(c2ccc3c(n2)[C@@H](C)CN(c2cc(C)nc4c2cnn4C)C3)C[C@H]1N` [Example 63, (3R,4R)-4-methoxy-1-[(8S)-6-(1,6-dimethylpyrazolo[3,4-b]pyridin-4-yl)-8-methyl-7,8-dihydro-5H-1,6-naphthyridin-2-yl]pyrrolidin-3-amine], the IC50 was 5 nM.

Consider `Cc1cc(N2Cc3ccc(OC4CCNCC4)nc3[C@@H](C)C2)c2cnn(C)c2n1` [Example 64, (8S)-6-(1,6-dimethylpyrazolo[3,4-b]pyridin-4-yl)-8-methyl-2-(4-piperidyloxy)-7,8-dihydro-5H-1,6-naphthyridine], for which the IC50 came to 5 nM.

On to `CO[C@H]1CN(c2ccc3c(n2)[C@@H](C)CN(c2cc(C)nc4c2cnn4C)C3)CC[C@@H]1N` [Example 65, (3S,4S)-3-methoxy-1-[(8S)-6-(1,6-dimethylpyrazolo[3,4-b]pyridin-4-yl)-8-methyl-7,8-dihydro-5H-1,6-naphthyridin-2-yl]piperidin-4-amine], for which the IC50 amounted to 6 nM.

Take `Cc1cc(N2Cc3ccc(N4CCNCC4)nc3[C@@H](C)C2)c2cnn(C)c2n1` [Example 66, (8S)-6-(1,6-dimethylpyrazolo[3,4-b]pyridin-4-yl)-8-methyl-2-piperazin-1-yl-7,8-dihydro-5H-1,6-naphthyridine]: the IC50 was 8 nM.

With `Cc1cc(N2Cc3ccc(N4CCN(C)CC4)nc3[C@@H](C)C2)c2cnn(C)c2n1` [Example 67, (8S)-6-(1,6-dimethylpyrazolo[3,4-b]pyridin-4-yl)-8-methyl-2-(4-methylpiperazin-1-yl)-7,8-dihydro-5H-1,6-naphthyridine], the IC50 amounted to 11 nM.

On to `Cc1cc(N2Cc3ccc(N4CC5(CNCCO5)C4)nc3[C@@H](C)C2)c2cnn(C)c2n1` [Example 68, 2-[(8S)-6-(1,6-dimethylpyrazolo[3,4-b]pyridin-4-yl)-8-methyl-7,8-dihydro-5H-1,6-naphthyridin-2-yl]-5-oxa-2,8-diazaspiro[3.5]nonane], for which the IC50 was found to be 17 nM.

As for `Cc1cc(N2Cc3ccc(N4C[C@@H](F)[C@@H](N)C4)nc3[C@@H](C)C2)c2cnn(C)c2n1` [Example 69, (3S,4R)-4-fluoro-1-[(8S)-6-(1,6-dimethylpyrazolo[3,4-b]pyridin-4-yl)-8-methyl-7,8-dihydro-5H-1,6-naphthyridin-2-yl]pyrrolidin-3-amine], the IC50 came out at 30 nM.

For the origin of these results see patent publication US20240317735A1, “HYDROISOQUINOLINE OR HYDRONAPHTHYRIDINE COMPOUNDS FOR THE TREATMENT OF AUTOIMMUNE DISEASE” (Hoffmann-La Roche Inc., priority 2020, published 2024).
